Measured values from patent publication US7655778B2, “SISP-1, a novel p53 target gene and use thereof” (priority 2006, dated 2010).

What was measured:
[1] = test system: IMR90 normal diploid fibroblasts; test: Northern blot of SISP-1 mRNA induction by genotoxic drugs; format: cell-based; conditions: IMR90 cells; etoposide 50 μM or CPT 600 nM, 24-48 hours; FIG. 4A
Experimental: IMR90 normal diploid fibroblasts (Obtained from ATCC) were cultured in Dulbecco's modified Eagle's medium (DMEM, Invitrogen)) containing 10% fetal bovine serum (FBS, Hyclone), 100 units/ml of penicillin, and 100 μg/ml of streptomycin at 37° C. […] Then, total RNA was extracted, denatured, electrophoresed through a 1% agarose-formaldehyde gel and transferred to a nylon membrane. Hybridization was performed with ^32P-labeled probes, SISP1, p21 or 36B4 (a loading control) prepared by the randomly primed DNA labeling method.

[2] = test system: HCT116 colon carcinoma cells; test: Cell death Elisa (DNA fragmentation) after adenoviral SISP-1 infection; format: cell-based, human; conditions: etoposide 30 μM, 24 hours, 12 hour post infection
Experimental: (§1) Next, the inventor investigated the apoptotic effects of SISP-1 expression in human colon cancer cells and breast carcinoma cells by using adenovirus expressing SISP-1. […] Adenoviruses expressing HA-tagged SISP-1 (Ad-SISP-1) or GFP (Ad-GFP as a control) were generated, amplified and titrated. HCT 116 colon carcinoma cells and MDAMB435 breast cancer cells were grown to 50-70% confluency and infected with recombinant adenovirus at multiplicity of infection (MOI) of 15-30. […] Then, cell death rate was measured by DNA fragmentation assay (Cell death Elisa kit, Roche).

[3] = test system: MDAMB435 breast cancer cells; test: as above; format: cell-based, human; conditions: etoposide 30 μM, 24 hours, 12 hour post infection
Experimental: as §1

[4] = test system: U2OS osteosarcoma cells; test: Cell-Death Elisa, tetracycline-inducible SISP-1 plus etoposide; format: cell-based; conditions: SISP-1 or etoposide (15 μM) alone, FIG. 9A
Experimental: U2OS-tet-on-SISP-1 cells were generated by isolating tetracycline regulated stable-clones expressing SISP-1 upon tetracycline addition (doxycycline, Sigma). U2OS-SISP-1 cells were cultured in the presence or absence of doxycycline (1 μg/ml) for 24 hours.

[5] = test system: U2OS osteosarcoma cells; test: Etoposide-induced cell death with inducible SISP-1 (FIG. 10); format: cell-based; conditions: over 48 hours
Excerpt: (§2) The present inventor further examined whether SISP-1 could also sensitize U2OS cells that is known to be quite resistant to chemo-drugs.
(§3) The inventor re-evaluated this effect in a rapidly growing human bladder carcinoma cell line, EJ, since SISP-1 may be used a strong candidate as a new sensitizing molecule that improves the therapeutic efficacy and minimizes the toxicity of chemo-drugs. To further confirm the sensitizing effects of SISP-1 expression in a combination of chemo-drugs, we generated tumor cells containing the tetracycline-regulated inducible expression of SISP-1 using U2OS and EJ lines.

[6] = test system: EJ bladder carcinoma cells; test: as above; format: cell-based, human; conditions: over 48 hours
Excerpt: as §2, §3

CC[C@@]1(O)C(=O)OCc2c1cc1n(c2=O)Cc2cc3ccccc3nc2-1 [CPT, camptothecin]
expression of SISP-1 mRNA [1]: induced

COc1cc([C@@H]2c3cc4c(cc3[C@@H](O[C@@H]3O[C@@H]5CO[C@@H](C)O[C@H]5[C@H](O)[C@H]3O)[C@H]3COC(=O)[C@H]23)OCO4)cc(OC)c1O [etoposide, reference compound]
sensitization of SISP-1 overexpressing cells by etoposide [2]: selectively sensitized
sensitization of SISP-1 overexpressing cells by etoposide [3]: selectively sensitized
cell death by single treatment [4]: did not induce cell death
cell death by etoposide itself [5]: induced a limited cell death
cell death by etoposide itself [6]: induced a limited cell death
